# ChEMBL document CHEMBL1139928, “Selective and dual action orally active inhibitors of thrombin and factor Xa” (Bioorg Med Chem Lett, 2007)
# Experiments:
# [1] = Volume of distribution in Beagle dog; assay type: ADME, organism-based, Canis lupus familiaris; conditions: in vivo, read-out: Vdss
# [2] = Plasma clearance in Beagle dog; assay type: ADME, organism-based, Canis lupus familiaris
# [3] = Volume of distribution in Sprague-Dawley rat; assay type: ADME, organism-based; conditions: in vivo, read-out: Vdss
# [4] = Oral bioavailability in Sprague-Dawley rat; assay type: ADME, organism-based; conditions: in vivo
# [5] = Oral bioavailability in Beagle dog; assay type: ADME, organism-based, Canis lupus familiaris; conditions: in vivo
# [6] = Half life in Beagle dog; assay type: ADME, organism-based, Canis lupus familiaris; conditions: in vivo
# [7] = Half life in Sprague-Dawley rat; assay type: ADME, organism-based; conditions: in vivo
# [8] = Plasma clearance in Sprague-Dawley rat; assay type: ADME, organism-based
compound,measurement,setting,value
C[C@@H](C(=O)N1CCOCC1)N1CC[C@H](NS(=O)(=O)CCc2ccc(Cl)s2)C1=O,Vd,[1],0.5 L/kg
same,clearance,[2],13 mL/min/kg
same,Vd,[3],0.8 L/kg
same,bioavailability,[4],31%
same,bioavailability,[5],38%
same,half-life,[6],30 min
same,half-life,[7],18 min
same,clearance,[8],28 mL/min/kg
C[C@@H](C(=O)N1CCOCC1)N1CC[C@H](NS(=O)(=O)/C=C/c2ccc(Cl)s2)C1=O [GW813893],Vd,[1],0.4 L/kg
same,clearance,[2],4.6 mL/min/kg
same,Vd,[3],0.3 L/kg
same,clearance,[8],8 mL/min/kg
C/C(=C\S(=O)(=O)N[C@H]1CCN([C@@H](C)C(=O)N2CCOCC2)C1=O)c1ccc(Cl)s1,Vd,[1],0.3 L/kg
same,clearance,[2],5.7 mL/min/kg
same,Vd,[3],0.4 L/kg
same,bioavailability,[4],32%
same,bioavailability,[5],48%
same,half-life,[6],36 min
same,half-life,[7],18 min
same,clearance,[8],21 mL/min/kg
